Data from patent US11565264B2, “Expandable arrays and methods of use” (Rutgers, The State University of New Jersey, priority 2018, dated 2023).
pEC50: −log10 of the molar value.

Tests used:
GBM PDOs = test: 72-hour drug treatment of GBM patient derived organoids (PDOs) in basket arrays; format: cell-based; details: 72-hour treatment
Protocol: The basket arrays were used to deploy rapid single cell derived sphere and organoid assays to assess tumor cell viability, tumor invasion, terminal differentiation and resistance to therapy for cancer drug discovery and drug validation. […] PDOs were treated for 72-hours with standard chemotherapy (TMZ) and/or molecularly targeted agents, targeting mTOR, PI3K, BMI1, EGFR, and DDR, among others. Following treatments, the entire 4D printed basket arrays were evolved, with a 10-min heating step at 50° C., to their programmable cassette size to directly perform histological and IHC validation on the same day, and with the convenience of maintaining the same tissue plate arrangement. The concentrations inhibiting viability by 50% (GI50), real time activated caspase 3 for detection of apoptotic cells and GBM tumor cell invasion in live intact organoid cells were less impacted by standard TMZ than targeted therapies.

U87 spheres = details: read-out: EC50 (median dose); GBM cell viability
From the text: FIG. 15A illustrates the results of the cell titer glo assay that utilizes ATP levels and was used to determine GBM viability in the presence of component biomaterials. FIGS. 15B and 15C are low-power images of bright fields of spheres cultured for one week in the presence of the indicated chemicals and concentrations. The insets are higher power (20×) magnification of the 5× images.

[1] = live intact organoid cells, TMZ compared with targeted therapies

Row | Molecule | EGFR expression in organoid cells (GBM PDOs) | GBM tumor cell invasion (GBM PDOs; [1]) | concentrations inhibiting viability by 50% (GI50) (GBM PDOs; [1]) | real time activated caspase 3 for detection of apoptotic cells (GBM PDOs; [1]) | pEC50 (U87 spheres)
1 | Cn1nnc2c(C(N)=O)ncn2c1=O [TMZ] | not affected | less impacted | less impacted | less impacted | –
2 | poly (Ethylene glycol) diacrylate 250 [PEGDA250] | – | – | – | – | 5.14
